Measured values published in patent publication US20140065223A1, “PERFLUORINATED COMPOUNDS FOR THE NON-VIRAL TRANSFER OF NUCLEIC ACIDS” (priority 2011, published 2014).

System: Cells of line HEK 293
Experiment: Detection of absorption into the cell: transfection of HEK 293 cells, microscopy / confocal microscopy of rhodamine coloration
Format: cell-based
Experimental: To follow the path of the perfluorinated nucleic acids into the cell, the following construct with rhodamine linking was used: The compound was first dissolved in tetrahydrofuran (THF), and this solution was subsequently titrated in isopropanol. […] Cells of line HEK 293 were used as cell culture Transfection was performed one day after cell enlargement. As a control, a transfection was performed with pure rhodamine particles of equivalent rhodamine concentration to test the perfluorinated nucleic acids. […] One explanation of this is possible that the rhodamine is bound to the PFC particle in the perfluorinated nucleic acids and sinks to the bottom as a small particle, whereas the dye is completely dissolved in the medium with pure rhodamine. […] The endosomes and lysosomes filled with perfluorinated nucleic acids were detected throughout the cell cytoplasm.

## rhodamine [pure rhodamine]
20 minutes after transfection
  coloration of the cells: no defined coloration could be seen
24 hours after transfection
  coloration of the cells: substantially weaker and diffuse in comparison on the cell surface instead of in the cytoplasm and granular
